The values below come from US8404650B2, “Methods of treating cancer with doxazolidine and prodrugs thereof” (priority 2005, dated 2013).

Where two headings read alike, the source gives them in different places.

One test deals with MCF-7/Adr cells. Kind of test: Drug uptake by MCF-7/Adr cells, flow cytometry of drug fluorescence. In kind it is cell-based. The following applies: for Drug uptake relative to Doxorubicin: MCF-7/Adr, 500 nM (equivalents), up to 3 h. The protocol: Drug uptake was measured by flow cytometery. Cells were dissociated with trypsin/EDTA, counted, and suspended in growth media to a concentration of 1×10^5 cells/mL. This cell suspension was dispensed in 2.5 mL aliquots into 6-well tissue culture plates. Plates were then incubated for 24 h at 37° C. in a humidified atmosphere of 5% CO2 and 95% air. The growth media was replaced with 2 mL of fresh growth media prior to addition of the drug. Doxaz, DoxF, and Doxorubicin HCl were dissolved in DMSO each at a concentration of 50 μM. The concentration was then corrected by measuring the solution absorbance at 480 nm (ε=11,500 M^−1 cm^−1). Drug solution (20 μL) was added to an individual well and was incubated for 5 min, 15 min, 30 min, 1 h, 2 h or 3 h at 37° C. in a humidified atmosphere of 5% CO2 and 95% air. All drug treatments were performed so all treatment times would end simultaneously. After treatment, culture media was removed, cells washed once with 0.5 mL HBSS, washed once with 0.5 mL trypsin/EDTA, and 0.5 mL trypsin/EDTA was added and cells were incubated for 5 min. After all cells were trypsinized, cells were aspirated with 1.5 mL cold D-PBS (Dulbecco's phosphate buffered saline, no calcium or magnesium) and this solution was added to 3 mL of cold D-PBS (4.5 mL total D-PBS) in a conical vial. Cells were centrifuged at 200 g for 5 min, and D-PBS was decanted off. Cells were washed once more in 5 mL cold D-PBS, centrifuged at 200 g for 5 min and D-PBS was decanted off. […] Cells were analyzed with excitation at 488 nm (15 mW Ar ion laser), with emission monitored between 570 nm and 600 nm. Instrument settings were optimized for the cell line and held constant for all experiments; for the anthracycline fluorescence analysis, 10,000 cells were analyzed for each sample. The data are presented as the mean fluorescence for each condition.
Uptake of pentyl PABC-Doxaz and Dox by multidrug resistant MCF-7/Adr breast cancer cells and SK-HEP-1 liver cancer cells in the presence of fetal bovine serum was determined by flow cytometry using drug fluorescence as a measure of drug in cells.
Background: In flow cytometry, cells or beads pass a laser one at a time.

Another test deals with Hep G2. Kind of test: Growth inhibition of Hep G2 liver cancer cells. In kind it is cell-based, human. The following applies: for IC50: Homo sapiens, HepG2. From the text:
Cell growth inhibition experiments initially focused on MCF-7, MCF-7/Adr, SK-HEP-1, and Hep G2 cancer cells as well as rat cardiomyocytes as a measure of cardiotoxicity and Vero cells (green monkey kidney cells) as an additional measure of normal cell toxicity. […]

In another test the test system is MCF-7. Kind of test: Growth inhibition of MCF-7 sensitive breast cancer cells (colony formation, crystal violet). The note with it: for IC50: Homo sapiens. In kind it is cell-based, human. The protocol: In vitro Activity. […] This cell suspension was dispensed in 200 μL aliquots (1000 cells/well) into the inside wells of 96-well tissue culture plates. Outside wells contained 200 μL of media. […] The medium was replaced with 90 μL of growth medium prior to addition of the drug. Doxaz was dissolved in DMSO at concentrations ranging from 50 μM to 1 mM. […] Serial dilutions (1:3 and 1:10) were made in sterile DMSO to yield seven solutions of decreasing drug concentration at 100× the respective working concentrations. […] Additionally, two lanes were treated with 10 μL of growth medium containing 10% sterile DMSO and one lane was treated with 90 μL of 1.5 M Tris HCl. […]
Cell growth inhibition experiments initially focused on MCF-7, MCF-7/Adr, SK-HEP-1, and Hep G2 cancer cells as well as rat cardiomyocytes as a measure of cardiotoxicity and Vero cells (green monkey kidney cells) as an additional measure of normal cell toxicity.
Activity of plasmin-activated prodrugs.
(§1) A more thorough characterization of the growth inhibition of a variety of cancer cells as well as rat cardiomyocytes by Formula IV (aFK-PABC-Doxaz) was evaluated in comparison with inhibition of growth by Doxaz, Dox and aFK-PABC-Dox. Cells were treated with drug for 3 h and colony growth was measured at 3 to 5 days when cells reached about 80% confluence. […] The breast cancer cell lines represent the multi-drug resistant (MDR) phenotype with MCF-7/Adr cells and a cell line that is transfected with the gene for urokinase plasminogen activator (uPA), the primary enzyme responsible for cleavage of plasminogen to plasmin. Rat cardiomyocytes served as a model for comparison of drug cardiotoxicity.

In a further test the test system is cancer cells. Kind of test: Cancer cell growth inhibition, statements over several or unnamed cell lines. In kind it is cell-based. As to the method:
In vitro Activity. […] This cell suspension was dispensed in 200 μL aliquots (1000 cells/well) into the inside wells of 96-well tissue culture plates. Outside wells contained 200 μL of media. […] The medium was replaced with 90 μL of growth medium prior to addition of the drug. Doxaz was dissolved in DMSO at concentrations ranging from 50 μM to 1 mM. […] Serial dilutions (1:3 and 1:10) were made in sterile DMSO to yield seven solutions of decreasing drug concentration at 100× the respective working concentrations. […] Additionally, two lanes were treated with 10 μL of growth medium containing 10% sterile DMSO and one lane was treated with 90 μL of 1.5 M Tris HCl. The cells were incubated at 37° C. for 3 h, at which time the drug solutions were replaced with 200 μL of fresh growth medium.
as §1

[1] abbreviates: 24 h drug treatment, crystal violet.
Setting [2] is: 3 h drug treatment, crystal violet, read-out: Growth inhibition IC50, Hep G2, 3 h (converted).

For `CCCCCOC(=O)Nc1ccc(COC(=O)N2COC3C(C)OC(OC4CC(O)(C(=O)CO)Cc5c(O)c6c(c(O)c54)C(=O)c4c(OC)cccc4C6=O)CC32)cc1` (stereo not drawn) [Pentyl PABC-Doxaz, Pentyl 4-(N-doxazolidinylcarbonyloxymethyl)phenylcarbamate], in the test with MCF-7/Adr cells (in the presence of fetal bovine serum), the “Uptake relative to Dox, MCF-7/Adr” value is “taken up much better”. In addition, the “Growth inhibition IC50, Hep G2, 24 h” value in the test with Hep G2 (setting [1]) is recorded as −7.3 ± 0.2 log of the molar concentration. The “Growth inhibition IC50, MCF-7, 24 h” value in the test on MCF-7 (setting [1]) is −5.6 ± 0.3 log of the molar concentration.

For `COc1cccc2c1C(=O)c1c(O)c3c(c(O)c1C2=O)C[C@@](O)(C(=O)CO)C[C@@H]3O[C@H]1C[C@@H]2NCO[C@@H]2[C@H](C)O1` [Doxaz, Doxazolidine], in the test with cancer cells (variety of multidrug-resistant cancer cells), the “More toxic than Doxorubicin to multidrug-resistant cancer cells” value was 500-10,000 fold. For the same compound, the “Drug uptake relative to Doxorubicin” value in the test on MCF-7/Adr cells is reported as “significantly more”. Also, the IC50 in the test on Hep G2 (setting [2]) was 10 nM; with MCF-7 (MCF7, 3 h, read-out: Growth inhibition IC50, MCF-7, 3 h), 3.16 nM; in the test on MCF-7 (MCF7, read-out: IC50 MCF-7) it was 3 ± 0.2 nM.

As for `COc1cccc2c1C(=O)c1c(O)c3c(c(O)c1C2=O)C[C@@](O)(C(=O)CO)C[C@@H]3O[C@H]1C[C@H]2[C@H](OCN2C(=O)OCc2ccc(NC(=O)[C@H](CCCCN)NC(=O)[C@H](Cc3ccccc3)NC(=O)[C@@H](C)N)cc2)[C@H](C)O1` [Formula IV, D-Ala-L-Phe-L-Lys-p-aminobenzyloxycarbonyl-Doxaz], in the test on cancer cells (0.01 unit/mL plasminogen, on average), the “Increase of activity on addition of plasminogen” value is on record as 0.3 log. In addition, the “Growth inhibition better than aFK-PABA-Dox” value in the test on cancer cells (most of the cancer cells, 3 h treatment) was at least 0.5 log. The IC50 in the test on cancer cells (read-out: Cancer cell growth inhibition IC50 in the presence of plasmin) was 5 nM; in the test with MCF-7 (MCF7, 3 h, read-out: IC50 MCF-7 + plasmin), 5 nM; in the test with MCF-7 (MCF7, read-out: IC50 MCF-7), 50 nM.

In the case of `COc1cccc2c1C(=O)c1c(O)c3c(c(O)c1C2=O)C[C@@](O)(C(=O)CO)C[C@@H]3O[C@H]1C[C@H](N)[C@H](O)[C@H](C)O1` [Doxorubicin, reference compound], in the test with cancer cells (0.01 unit/mL of plasmin), the “Effect of added plasmin on activity” value is “no effect”. The IC50 in the test with Hep G2 (setting [2]) was 200 nM; in the test with Hep G2 (24 h drug treatment, crystal violet, read-out: Growth inhibition IC50, Hep G2, 24 h (converted)), 31.6 nM; in the test with MCF-7 (MCF7, 3 h, read-out: Growth inhibition IC50, MCF-7, 3 h, 3 h drug treatment, crystal violet), 316 nM; in the test on MCF-7 (MCF7, 3 h, read-out: IC50 MCF-7 + plasmin, + plasmin (15 μg/ml)) it was 300 nM; with MCF-7 (MCF7, 24 h, read-out: Growth inhibition IC50, MCF-7, 24 h, 24 h drug treatment, crystal violet), 12.6 nM; in the test with MCF-7 (MCF7, read-out: IC50 MCF-7, 3 h drug treatment, growth at 5 days), 200 ± 26 nM. Besides, the IC50 in the test on MCF-7 (MCF7, read-out: IC50 MCF-7, no plasmin or aprotinin added) came to 300 nM.

For `COc1cccc2c1C(=O)c1c(O)c3c(c(O)c1C2=O)C[C@@](O)(C(=O)CO)C[C@@H]3OC1CC2C(OCN2CN2COC3C(C)OC(O[C@H]4C[C@](O)(C(=O)CO)Cc5c(O)c6c(c(O)c54)C(=O)c4c(OC)cccc4C6=O)CC32)C(C)O1` (stereo partly drawn) [DoxF, Doxoform, reference compound], in the test with MCF-7/Adr cells, the “Drug uptake relative to Doxorubicin” value is given as “significantly more”. For the same compound, the “IC50 lower than doxorubicin, Hep-G2” value with Hep G2 is “more than 25 fold”. In addition, the IC50 with MCF-7 (MCF7, 3 h, read-out: IC50 MCF-7) was 2 nM.
